Assay results taken from US11254668B2, “Pyrazolo[1,5-A]pyrazin-4-yl and related derivatives” (Pfizer Inc., priority 2017, dated 2022).

Columns and labels:
Type in all cases: biochemical
TYK2 = TYK2 (Homo sapiens (Human), UniProt P29597); experiment: JAK Caliper Enzyme Assay at 1 mM ATP, TYK2
Summary of the method: (§1)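 First, compound was incubated at room temperature with recombinant human kinase domain, a synthetic peptide and 1 mM ATP until 20–30% of peptide was phosphorylated. Next, EDTA stopped the reaction. Finally, electrophoretic separation quantified product, and percent effect relative to controls was plotted against concentration.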

JAK1 = JAK1 (Homo sapiens (Human), UniProt P23458); experiment: JAK Caliper Enzyme Assay at 1 mM ATP, JAK1
Summary of the method: (§2)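 Recombinant human kinase domains phosphorylate a fluorescent synthetic peptide at 1 mM ATP, room temperature, with enzyme and time tuned for 20-30% conversion; EDTA-stopped. Product/substrate separated by microfluidic mobility shift; percent effect versus DMSO and positive controls fitted to IC50 (nM).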

JAK2 = JAK2 (Homo sapiens (Human), UniProt O60674); experiment: JAK Caliper Enzyme Assay at 1 mM ATP, JAK2
Summary of the method: as §1

JAK3 = JAK3 (Homo sapiens (Human), UniProt P52333); experiment: JAK Caliper Enzyme Assay at 1 mM ATP, JAK3
Summary of the method: as §2

Sequence of TYK2 (P29597 897-1176): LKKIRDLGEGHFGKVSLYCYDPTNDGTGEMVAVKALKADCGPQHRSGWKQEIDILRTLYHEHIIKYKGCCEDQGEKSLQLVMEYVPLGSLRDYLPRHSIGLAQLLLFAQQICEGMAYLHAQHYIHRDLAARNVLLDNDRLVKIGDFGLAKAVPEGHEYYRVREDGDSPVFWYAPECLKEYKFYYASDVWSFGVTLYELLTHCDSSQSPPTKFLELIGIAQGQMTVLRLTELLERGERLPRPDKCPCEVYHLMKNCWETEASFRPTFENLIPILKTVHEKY
Sequence of JAK2 (O60674 849-1124): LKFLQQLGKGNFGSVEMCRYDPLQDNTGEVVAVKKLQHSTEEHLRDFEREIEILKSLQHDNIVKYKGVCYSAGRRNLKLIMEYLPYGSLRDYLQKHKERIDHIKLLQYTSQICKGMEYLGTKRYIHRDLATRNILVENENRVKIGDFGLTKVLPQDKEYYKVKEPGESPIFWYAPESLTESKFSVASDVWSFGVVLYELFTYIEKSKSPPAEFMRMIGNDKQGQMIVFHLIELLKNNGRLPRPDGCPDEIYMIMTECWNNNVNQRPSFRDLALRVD
Sequence of JAK1 (P23458 875-1153): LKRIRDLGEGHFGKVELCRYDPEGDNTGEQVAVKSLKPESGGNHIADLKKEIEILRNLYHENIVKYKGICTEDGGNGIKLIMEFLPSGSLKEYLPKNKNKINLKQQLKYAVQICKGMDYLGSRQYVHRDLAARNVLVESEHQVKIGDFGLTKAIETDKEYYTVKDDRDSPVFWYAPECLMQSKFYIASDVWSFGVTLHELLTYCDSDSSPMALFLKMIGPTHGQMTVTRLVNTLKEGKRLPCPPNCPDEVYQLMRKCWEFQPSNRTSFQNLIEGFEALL
Sequence of JAK3 (P52333 822-1111): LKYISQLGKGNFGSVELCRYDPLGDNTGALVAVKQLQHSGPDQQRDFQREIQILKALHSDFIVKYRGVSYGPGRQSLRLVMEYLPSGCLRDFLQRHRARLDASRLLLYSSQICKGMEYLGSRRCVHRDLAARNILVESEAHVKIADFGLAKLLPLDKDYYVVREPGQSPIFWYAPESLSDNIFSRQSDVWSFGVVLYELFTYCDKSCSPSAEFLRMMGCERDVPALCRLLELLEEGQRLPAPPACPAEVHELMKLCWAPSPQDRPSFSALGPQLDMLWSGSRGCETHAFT

## CC(=O)Nc1cc(-c2cc3ncccc3c(-c3ccn(C4(CC#N)CN(S(C)(=O)=O)C4)n3)n2)cnc1C [Example 228, N-[5-(5-{1-[3-(cyanomethyl)-1-(methylsulfonyl)azetidin-3-yl]-1H-pyrazol-3-yl}-1,6-naphthyridin-7-yl)-2-methylpyridin-3-yl]acetamide]
TYK2
  IC50: 704 nM
JAK1
  IC50: 4350 nM
JAK2
  IC50: 6630 nM
JAK3
  IC50: > 10000 nM

## CS(=O)(=O)N1CC(CC#N)(n2ccc(-c3nc(-c4cnc(N)c(N)c4)cc4ncccc34)n2)C1 [Example 229, [3-{3-[7-(5,6-diaminopyridin-3-yl)-1,6-naphthyridin-5-yl]-1H-pyrazol-1-yl}-1-(methylsulfonyl)azetidin-3-yl]acetonitrile]
TYK2
  IC50: 81 nM
JAK1
  IC50: 2460 nM
JAK2
  IC50: 1000 nM
JAK3
  IC50: > 10000 nM

## CS(=O)(=O)N1CC(CC#N)(n2ccc(-c3nc(-c4ccc(N)nc4N)cc4ncccc34)n2)C1 [Example 230, [3-{3-[7-(2,6-diaminopyridin-3-yl)-1,6-naphthyridin-5-yl]-1H-pyrazol-1-yl}-1-(methylsulfonyl)azetidin-3-yl]acetonitrile]
TYK2
  IC50: 33 nM
JAK1
  IC50: 1120 nM
JAK2
  IC50: 451 nM
JAK3
  IC50: > 10000 nM

## CC(=O)Nc1cc(-c2cc3ncccc3c(-c3ccn(C4(CC#N)CN(S(C)(=O)=O)C4)n3)n2)cnc1NC(C)=O [Example 231, N,N′-[5-(5-{1-[3-(cyanomethyl)-1-(methylsulfonyl)azetidin-3-yl]-1H-pyrazol-3-yl}-1,6-naphthyridin-7-yl)pyridine-2,3-diyl]diacetamide]
TYK2
  IC50: 948 nM
JAK1
  IC50: 5760 nM
JAK2
  IC50: 7900 nM
JAK3
  IC50: > 10000 nM

## N#CCC1(n2ccc(-c3nc(-c4cnc5c(c4)CCC5)cc4ncccc34)n2)CN(CC(F)(F)F)C1 [Example 232]
TYK2
  IC50: 1510 nM
JAK1
  IC50: > 10000 nM
JAK2
  IC50: 5820 nM
JAK3
  IC50: > 10000 nM

## N#CCC1(n2ccc(-c3nc(-c4cncnc4)cc4ncccc34)n2)CN(CC(F)(F)F)C1 [Example 234, [3-{3-[7-(pyrimidin-5-yl)-1,6-naphthyridin-5-yl]-1H-pyrazol-1-yl}-1-(2,2,2-trifluoroethyl)azetidin-3-yl]acetonitrile]
TYK2
  IC50: 2660 nM
JAK1
  IC50: > 10000 nM
JAK2
  IC50: > 10000 nM
JAK3
  IC50: > 10000 nM

## CS(=O)(=O)N1CC(CC#N)(n2ccc(-c3nc(-c4cncnc4)cc4ncccc34)n2)C1 [Example 235, [1-(methylsulfonyl)-3-{3-[7-(pyrimidin-5-yl)-1,6-naphthyridin-5-yl]-1H-pyrazol-1-yl}azetidin-3-yl]acetonitrile]
TYK2
  IC50: 5510 nM
JAK1
  IC50: > 10000 nM
JAK2
  IC50: > 10000 nM
JAK3
  IC50: > 10000 nM

## COc1ncc(-c2cc3ncccc3c(-c3ccn(C4(CC#N)CN(CC(F)(F)F)C4)n3)n2)cn1 [Example 236, [3-{3-[7-(2-methoxypyrimidin-5-yl)-1,6-naphthyridin-5-yl]-1H-pyrazol-1-yl}-1-(2,2,2-trifluoroethyl)azetidin-3-yl]acetonitrile]
TYK2
  IC50: 2360 nM
JAK1
  IC50: > 10000 nM
JAK2
  IC50: > 10000 nM
JAK3
  IC50: > 10000 nM

## COc1ncc(-c2cc3ncccc3c(-c3ccn(C4(CC#N)CN(S(C)(=O)=O)C4)n3)n2)cn1 [Example 237, [3-{3-[7-(2-methoxypyrimidin-5-yl)-1,6-naphthyridin-5-yl]-1H-pyrazol-1-yl}-1-(methylsulfonyl)azetidin-3-yl]acetonitrile]
TYK2
  IC50: 2040 nM
JAK1
  IC50: > 10000 nM
JAK2
  IC50: > 10000 nM
JAK3
  IC50: > 10000 nM

## CS(=O)(=O)N1CC(CC#N)(n2ccc(-c3nc(-c4cnc(N)nc4)cc4ncccc34)n2)C1 [Example 238, [3-{3-[7-(2-aminopyrimidin-5-yl)-1,6-naphthyridin-5-yl]-1H-pyrazol-1-yl}-1-(methylsulfonyl)azetidin-3-yl]acetonitrile]
TYK2
  IC50: 1920 nM
JAK1
  IC50: > 10000 nM
JAK2
  IC50: 8970 nM
JAK3
  IC50: > 10000 nM

## N#CC[C@]1(n2ccc(-c3nc(-c4cnnc(N)c4)cc4ncccc34)n2)C[C@H](C#N)C1 [Example 239, trans-3-{3-[7-(6-aminopyridazin-4-yl)-1,6-naphthyridin-5-yl]-1H-pyrazol-1-yl}-3-(cyanomethyl)cyclobutanecarbonitrile]
TYK2
  IC50: 96 nM
JAK1
  IC50: 3720 nM
JAK2
  IC50: 1120 nM
JAK3
  IC50: > 10000 nM

## N#CC[C@]1(n2ccc(-c3nc(-c4cnnc(N)c4)cc4ncccc34)n2)C[C@@H](C#N)C1 [Example 240, cis-3-{3-[7-(6-aminopyridazin-4-yl)-1,6-naphthyridin-5-yl]-1H-pyrazol-1-yl}-3-(cyanomethyl)cyclobutanecarbonitrile]
TYK2
  IC50: 48 nM
JAK1
  IC50: 1280 nM
JAK2
  IC50: 448 nM
JAK3
  IC50: > 10000 nM

## N#CC[C@]1(n2ccc(-c3nc(-c4cc(N)cnn4)cc4ncccc34)n2)C[C@H](C#N)C1 [Example 241, trans-3-{3-[7-(5-aminopyridazin-3-yl)-1,6-naphthyridin-5-yl]-1H-pyrazol-1-yl}-3-(cyanomethyl)cyclobutanecarbonitrile]
TYK2
  IC50: 3390 nM
JAK1
  IC50: > 10000 nM
JAK2
  IC50: > 10000 nM
JAK3
  IC50: > 10000 nM

## N#CC[C@]1(n2ccc(-c3nc(-c4cc(N)cnn4)cc4ncccc34)n2)C[C@@H](C#N)C1 [Example 242, cis-3-{3-[7-(5-aminopyridazin-3-yl)-1,6-naphthyridin-5-yl]-1H-pyrazol-1-yl}-3-(cyanomethyl)cyclobutanecarbonitrile]
TYK2
  IC50: 503 nM
JAK1
  IC50: > 10000 nM
JAK2
  IC50: 3770 nM
JAK3
  IC50: > 10000 nM

## N#CC[C@]1(n2ccc(-c3nc(-c4ccnc(C(N)=O)n4)cc4ncccc34)n2)C[C@H](C#N)C1 [Example 243, 4-(5-{1-[trans-3-cyano-1-(cyanomethyl)cyclobutyl]-1H-pyrazol-3-yl}-1,6-naphthyridin-7-yl)pyrimidine-2-carboxamide]
TYK2
  IC50: 48 nM
JAK1
  IC50: 2220 nM
JAK2
  IC50: 726 nM
JAK3
  IC50: > 10000 nM

## N#CC[C@]1(n2ccc(-c3nc(-c4ccnc(C(N)=O)n4)cc4ncccc34)n2)C[C@H](C#N)C1 [Example 244, 4-(5-{1-[cis-3-cyano-1-(cyanomethyl)cyclobutyl]-1H-pyrazol-3-yl}-1,6-naphthyridin-7-yl)pyrimidine-2-carboxamide]
TYK2
  IC50: 424 nM
JAK1
  IC50: > 10000 nM
JAK2
  IC50: > 10000 nM
JAK3
  IC50: > 10000 nM

## CS(=O)(=O)N1CC(CC#N)(n2ccc(-c3nc(-c4ccc(=O)[nH]c4)cc4ncccc34)n2)C1 [Example 245, [1-(methylsulfonyl)-3-{3-[7-(6-oxo-1,6-dihydropyridin-3-yl)-1,6-naphthyridin-5-yl]-1H-pyrazol-1-yl}azetidin-3-yl]acetonitrile]
TYK2
  IC50: 11 nM
JAK1
  IC50: 220 nM
JAK2
  IC50: 131 nM
JAK3
  IC50: > 10000 nM

## N#CCC1(n2ccc(-c3nc(-c4ccc(=O)[nH]c4)cc4ncccc34)n2)CN(S(=O)(=O)C2CC2)C1 [Example 246, [1-(cyclopropylsulfonyl)-3-{3-[7-(6-oxo-1,6-dihydropyridin-3-yl)-1,6-naphthyridin-5-yl]-1H-pyrazol-1-yl}azetidin-3-yl]acetonitrile]
TYK2
  IC50: 32 nM
JAK1
  IC50: 554 nM
JAK2
  IC50: 971 nM
JAK3
  IC50: > 10000 nM

## CO[C@H]1C[C@@](CC#N)(n2ccc(-c3nc(-c4ccc(=O)[nH]c4)cc4ncccc34)n2)C1 [Example 247, (cis-3-methoxy-1-{3-[7-(6-oxo-1,6-dihydropyridin-3-yl)-1,6-naphthyridin-5-yl]-1H-pyrazol-1-yl}cyclobutyl)acetonitrile]
TYK2
  IC50: 49 nM
JAK1
  IC50: 1340 nM
JAK2
  IC50: 778 nM
JAK3
  IC50: > 10000 nM

## Cn1cc(-c2cc3ncccc3c(-c3ccn(C4(CC#N)CN(S(C)(=O)=O)C4)n3)n2)ccc1=O [Example 248, [3-{3-[7-(1-methyl-6-oxo-1,6-dihydropyridin-3-yl)-1,6-naphthyridin-5-yl]-1H-pyrazol-1-yl}-1-(methylsulfonyl)azetidin-3-yl]acetonitrile]
TYK2
  IC50: 96 nM
JAK1
  IC50: 994 nM
JAK2
  IC50: 532 nM
JAK3
  IC50: > 10000 nM

## Cn1cc(-c2cc3ncccc3c(-c3ccn(C4(CC#N)CN(CC(F)(F)F)C4)n3)n2)ccc1=O [Example 249, [3-{3-[7-(1-methyl-6-oxo-1,6-dihydropyridin-3-yl)-1,6-naphthyridin-5-yl]-1H-pyrazol-1-yl}-1-(2,2,2-trifluoroethyl)azetidin-3-yl]acetonitrile]
TYK2
  IC50: 178 nM
JAK1
  IC50: 1080 nM
JAK2
  IC50: 1150 nM
JAK3
  IC50: > 10000 nM

## Cc1cc(-c2cc3ncccc3c(-c3ccn(C4(CC#N)CN(CC(F)(F)F)C4)n3)n2)c[nH]c1=O [Example 250, [3-{3-[7-(5-methyl-6-oxo-1,6-dihydropyridin-3-yl)-1,6-naphthyridin-5-yl]-1H-pyrazol-1-yl}-1-(2,2,2-trifluoroethyl)azetidin-3-yl]acetonitrile]
TYK2
  IC50: 55 nM
JAK1
  IC50: 1260 nM
JAK2
  IC50: 821 nM
JAK3
  IC50: > 10000 nM

## CCn1cc(-c2cc3ncccc3c(-c3ccn(C4(CC#N)CN(S(C)(=O)=O)C4)n3)n2)ccc1=O [Example 251, [3-{3-[7-(1-ethyl-6-oxo-1,6-dihydropyridin-3-yl)-1,6-naphthyridin-5-yl]-1H-pyrazol-1-yl}-1-(methylsulfonyl)azetidin-3-yl]acetonitrile]
TYK2
  IC50: 48 nM
JAK1
  IC50: 541 nM
JAK2
  IC50: 229 nM
JAK3
  IC50: > 10000 nM

## CS(=O)(=O)N1CC(CC#N)(n2ccc(-c3nc(-c4ccccc4O)cc4ncccc34)n2)C1 [Example 252, [3-{3-[7-(2-hydroxyphenyl)-1,6-naphthyridin-5-yl]-1H-pyrazol-1-yl}-1-(methylsulfonyl)azetidin-3-yl]acetonitrile]
TYK2
  IC50: 15 nM
JAK1
  IC50: 663 nM
JAK2
  IC50: 118 nM
JAK3
  IC50: > 10000 nM
